From US20260083708A1, “IL-17 MODULATORS AND USES THEREOF” (NNOCARE PHARMA INC., priority 2024, published 2026)

How the values were obtained:
IL-17AA and IL-17RA = biological target: T1, IL-17AA and IL-17RA (Homo sapiens, UniProt Q16552); assay: Competitive inhibition of human IL-17AA and IL-17RA binding (HTRF); details: recombinant IL-17AA (His-tag) and IL-17RA (hFc-tag); read-out: IC50 for Inhibiting IL-AA/IL-RA Binding
T1 construct: purchased Sino Biological 12047-H07B (IL-17AA); 10895-H02H (IL-17RA)
T1 sequence (Q16552 24-155): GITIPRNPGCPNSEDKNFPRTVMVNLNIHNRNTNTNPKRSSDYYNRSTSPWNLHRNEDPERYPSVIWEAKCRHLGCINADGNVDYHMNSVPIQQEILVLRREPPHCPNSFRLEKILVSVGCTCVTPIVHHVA
Procedure: Example 42. Competitive Inhibition of Human IL-17AA and IL-17RA Binding
Recombinant IL-17AA (His-tag, Catalog Number 12047-H07B) and IL-17RA (hFc-tag, Catalog Number 10895-H02H) were purchased from Sino Biological. In the experiment, 10 μL of IL-17AA (1 nM) or IL-17RA (1 nM) was added to 10 μL of anti-6His-Tb (0.4 nM, Revvity, Catalog Number 61HISTLF) or anti-human IgG-d2 (1 μg/mL, anti-human IgG-d2, Revvity, Catalog Number 61HFCDAF), respectively and incubated at room temperature for 1 hour. Compounds were serially diluted starting from 10 μM. 5 μL of each compound solution was incubated with 5 μL of a mixture of IL-17AA and anti-6His-Tb at room temperature for 2 hours. After pre-incubation, to which was added 10 μL of a mixture of IL-17RA and anti-human IgG-d2, and incubation was continued for additional 20 minutes. Subsequently, a microplate reader (Envision, PerkinElmer) was used to detect fluorescence intensity at 615 nm and 665 nm, and the ratio of intensity thereof indicates the degree of IL-17AA and IL-17RA interaction. The ratio of intensity in the absence of tested compound was the highest value of binding between IL-17AA and IL-17RA, and the ratio of intensity in the absence of IL-17AA was the lowest value.
(§1) Therefore, the percentage of inhibition of tested compound was calculated as
Experimental results were analyzed using XLfit (IDBS) for 4-parameter nonlinear fitting analysis, to provide the IC50 value for each tested compound (Table 1).

[1] = test system: IL-17AA-induced IL-17 signaling pathway; assay: Inhibition of IL-17AA-induced IL-17 signaling pathway in HEK-Blue IL-17 reporter cells (SEAP); assay type: cell-based; details: Homo sapiens; HEK-Blue IL-17 cells, IL-17AA 2.5 ng/mL, 20 hours; read-out: IC50 for Inhibiting IL-AA Signaling
Excerpt: Example 43. Inhibition of IL-17AA-Induced IL-17 Signaling Pathway
(§2) Interleukin-17 (IL-17) reporter cell line (HEK-Blue IL-17, InvivoGen, Catalog Number hkb-i117) is created by genetically engineering human IL-17RA/IL-17RC heterodimeric receptor and downstream adapter protein ACT1 into human embryonic kidney 293 cells (HEK293). These cells also express secreted embryonic alkaline phosphatase (SEAP) reporter gene induced by NF-κB and AP-1. Therefore, IL-17AA can activate NF-κB and AP-1 signaling pathways inside the cells by binding to IL-17RA/RC on cell membrane, leading to expression of SEAP protein. After a colorimetric reaction between SEAP protein and Quanti-Blue solution, the absorbance at 620 nm is measured using a microplate reader (BioTek H1M, Agilent, Catalog Number SH1M-SN) to determine IL-17AA-activated signaling pathway.
(§3) In the experiment, HEK-Blue IL-17 cells were cultured at 37° C. under 5% CO2 conditions using the recommended medium from InvivoGen's instruction. Compounds were serially diluted starting from 10 μM. 4 μL of each compound solution was added to 32 μL of cells (10,000 cells) at 37° C. for 1 hour. After pre-incubation, 4 μL of IL-17AA with a final concentration of 2.5 ng/mL (Sino Biological, Catalog Number 12047-HNAS) was added to the cells, and incubation was continued for additional 20 hours. After incubation, 5 μL of cell culture supernatant was added to 45 μL of Quanti-Blue for the colorimetric reaction. The group without tested compound had the highest absorbance at 620 nm, and the group without IL-17AA had the lowest absorbance at 620 nm.
as §1
(§4) Experimental results were analyzed using XLfit (IDBS) for 4-parameter nonlinear fitting analysis to provide the IC50 value for each tested compound (Table 1).

[2] = test system: IL-17AF-induced IL-17 signaling pathway; assay: Inhibition of IL-17AF-induced IL-17 signaling pathway; assay type: cell-based; details: Homo sapiens; IL-17AF used instead of IL-17AA; read-out: IC50 for Inhibiting IL-AF Signaling
Excerpt: as §2, §3, §1, §4
Example 44. Inhibition of IL-17AF-Induced IL-17 Signaling Pathway
The same experimental procedure to Example […] was followed where IL-17AF was used instead of IL-17AA.

**Q.** What does the source list for CCn1nccc1C(=O)N[C@H](C(=O)Nc1ccc([C@H](C)[C@@H](NC(=O)COC)c2ncnn2CC2CC2)cc1F)C1CCC(C)CC1 (stereo partly drawn) [Compound 41, N-((S)-2-((4-((1R,2S)-1-(1-(cyclopropylmethyl)-1H-1,2,4-triazol-5-yl)-1-(2-methoxyacetamido)propan-2-yl)-2-fluorophenyl)amino)-1-((1R,4S)-4-methylcyclohexyl)-2-oxoethyl)-1-ethyl-1H-pyrazole-5-carboxamide]?
**A.** IC50 (IL-17AA and IL-17RA): 0.0049 µM; IC50 [1]: 0.011 µM; IC50 [2]: 0.016 µM

**Q.** How did the IC50 (IL-17AA and IL-17RA) turn out when CCn1nccc1C(=O)N[C@H](C(=O)Nc1ccc([C@H](C)[C@@H](NC(=O)COC)c2nncn2CC2CCOCC2)cc1F)C(C1CC1)C1CC1 [Compound 9, N-((S)-1,1-dicyclopropyl-3-((2-fluoro-4-((1R,2S)-1-(2-methoxyacetamido)-1-(4-((tetrahydro-2H-pyran-4-yl)methyl)-4H-1,2,4-triazol-3-yl)propan-2-yl)phenyl)amino)-3-oxopropan-2-yl)-1-ethyl-1H-pyrazole-5-carboxamide] was run?
**A.** The IC50 was 0.016 µM.

**Q.** What about the IC50 [1] of the same molecule?
**A.** The IC50 was 0.031 µM.

**Q.** And the IC50 [2]?
**A.** The IC50 was 0.133 µM.

**Q.** For COCC(=O)N[C@@H](c1nncn1CC1CC1)[C@@H](C)c1ccc(NC(=O)[C@@H](NC(=O)C(F)(F)c2ccc(OC)nc2)C(C2CC2)C2CC2)c(F)c1 [Compound 7, (S)-3,3-dicyclopropyl-N-(4-((1R,2S)-1-(4-(cyclopropylmethyl)-4H-1,2,4-triazol-3-yl)-1-(2-methoxyacetamido)propan-2-yl)-2-fluorophenyl)-2-(2,2-difluoro-2-(6-methoxypyridin-3-yl)acetamido)propanamide], which IC50 (IL-17AA and IL-17RA) is on record?
**A.** The IC50 was 0.0052 µM.

**Q.** And the IC50 [1]?
**A.** Its IC50 is 0.0039 µM.

**Q.** And the IC50 [2]?
**A.** Its IC50 is 0.0089 µM.

**Q.** Which IC50 (IL-17AA and IL-17RA) does the source give for Cc1nonc1C(=O)N[C@H](C(=O)Nc1ccc([C@H](C)[C@@H](NC(=O)COC(F)(F)F)c2ncnn2CC2CC2)cc1F)C(C1CC1)C1CC1 [Compound 64, N-((S)-1,1-dicyclopropyl-3-((4-((1R,2S)-1-(1-(cyclopropylmethyl)-1H-1,2,4-triazol-5-yl)-1-(2-(trifluoromethoxy)acetamido)propan-2-yl)-2-fluorophenyl)amino)-3-oxopropan-2-yl)-4-methyl-1,2,5-oxadiazole-3-carboxamide] here?
**A.** The IC50 was 0.0011 µM.

**Q.** And the IC50 [1]?
**A.** Its IC50 is 0.0036 µM.

**Q.** What about the IC50 [2] of the same molecule?
**A.** Its IC50 is 0.0059 µM.

**Q.** Which IC50 (IL-17AA and IL-17RA) does the source give for Cc1nonc1C(=O)N[C@H](C(=O)Nc1ccc([C@H](C)[C@@H](NC(=O)CO)c2ncnn2CC2CC2)cc1F)C(C1CC1)C1CC1 [Compound 57, N-((S)-1,1-dicyclopropyl-3-((4-((1R,2S)-1-(1-(cyclopropylmethyl)-1H-1,2,4-triazol-5-yl)-1-(2-hydroxyacetamido)propan-2-yl)-2-fluorophenyl)amino)-3-oxopropan-2-yl)-4-methyl-1,2,5-oxadiazole-3-carboxamide] here?
**A.** The IC50 was 0.0068 µM.

**Q.** And the IC50 [1]?
**A.** Its IC50 is 0.095 µM.

**Q.** What about the IC50 [2] of the same molecule?
**A.** Its IC50 is 0.088 µM.

**Q.** With [2H]C([2H])([2H])n1ccc(C(=O)N[C@H](C(=O)Nc2ccc([C@H](C)[C@@H](NC(=O)CC)c3ncnn3CC3CC3)cc2F)C(C2CC2)C2CC2)n1 [Compound 86, N-((S)-1,1-dicyclopropyl-3-((4-((1R,2S)-1-(1-(cyclopropylmethyl)-1H-1,2,4-triazol-5-yl)-1-propionamidopropan-2-yl)-2-fluorophenyl)amino)-3-oxopropan-2-yl)-1-(methyl-d3)-1H-pyrazole-3-carboxamide] as the molecule, how does the IC50 (IL-17AA and IL-17RA) read?
**A.** The IC50 was 0.023 µM.

**Q.** And the IC50 [1]?
**A.** The IC50 was 0.143 µM.

**Q.** And the IC50 [2]?
**A.** Its IC50 is 0.228 µM.

**Q.** With CCn1nccc1C(=O)N[C@H](C(=O)Nc1ccc([C@H](C)[C@@H](NC(=O)COC)c2nnnn2CC2CC2)cc1F)C(C1CC1)C1CC1 [Compound 24, N-((S)-1,1-dicyclopropyl-3-((4-((1R,2S)-1-(1-(cyclopropylmethyl)-1H-tetrazol-5-yl)-1-(2-methoxyacetamido)propan-2-yl)-2-fluorophenyl)amino)-3-oxopropan-2-yl)-1-ethyl-1H-pyrazole-5-carboxamide] as the molecule, how does the IC50 (IL-17AA and IL-17RA) read?
**A.** The IC50 was 0.0032 µM.

**Q.** What about the IC50 [1] of the same molecule?
**A.** The IC50 was 0.0025 µM.

**Q.** What about the IC50 [2] of the same molecule?
**A.** Its IC50 is 0.01 µM.
